Among the data in ChEMBL document CHEMBL5465560, “Selectivity Literature for EUbOPEN Chemogenomic Library” (2024) are % of engagement, % of control and % of inhibition values, retold here.

Assay [1] deals with T1, Protein kinase C iota type (Homo sapiens) (UniProt P41743).
T1 sequence (whole entry): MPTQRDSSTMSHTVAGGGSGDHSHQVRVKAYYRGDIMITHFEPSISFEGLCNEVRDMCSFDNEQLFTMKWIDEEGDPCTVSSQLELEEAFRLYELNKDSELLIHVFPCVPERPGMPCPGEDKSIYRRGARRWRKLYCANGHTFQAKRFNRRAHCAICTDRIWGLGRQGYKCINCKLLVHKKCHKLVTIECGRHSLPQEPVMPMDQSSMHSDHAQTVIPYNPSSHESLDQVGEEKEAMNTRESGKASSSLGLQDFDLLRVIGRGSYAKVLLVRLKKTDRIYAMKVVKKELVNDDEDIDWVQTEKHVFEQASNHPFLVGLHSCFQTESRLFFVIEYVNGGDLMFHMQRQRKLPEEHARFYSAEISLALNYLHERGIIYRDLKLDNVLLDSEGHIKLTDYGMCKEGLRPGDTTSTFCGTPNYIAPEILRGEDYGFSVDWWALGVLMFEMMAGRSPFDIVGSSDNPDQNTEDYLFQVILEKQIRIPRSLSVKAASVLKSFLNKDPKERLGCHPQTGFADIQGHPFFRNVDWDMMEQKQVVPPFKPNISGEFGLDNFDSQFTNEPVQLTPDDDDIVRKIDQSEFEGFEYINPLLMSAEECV
The experiment in a line: Selectivity interaction (Kinase panel (KiNativ target engagement assay in Jurkat cells)) EUB0001635a PRKCI. Format: cell-based. As to conditions: Selectivity number of off-targets 0.0, Selectivity number of targets 233.0, Source Knowledge https://www.sciencedirect.com/science/article/pii/S2451945619300674?via%3Dihub, at 1 µM.

Assay [2] has as its system Proto-oncogene tyrosine-protein kinase receptor Ret (Homo sapiens), P07949 [V804M]. Put plainly: Selectivity interaction (KinomeScan (DiscoverX)) EUB0000311b RET. Particulars: at 1 µM.
For assay [3], the target named is Tyrosine-protein kinase SYK (Homo sapiens, UniProt P43405). Put plainly: Selectivity interaction (KinaseProfiler screening (Millipore)) EUB0000601a SYK. As to conditions: at 3 µM.
Assay [4] concerns the target Serine/threonine-protein kinase 38 (Homo sapiens) (UniProt Q15208). Put plainly: Selectivity interaction (ActivX KiNativ screen (kinase selectivity in THP-1 cell lysates)) EUB0000639a STK38. As to conditions: lysate. Format: subcellular.
The target in assay [5] is Glycogen synthase kinase-3 alpha (Homo sapiens, UniProt P49840). As to conditions: at 10 µM.
Sequence of Glycogen synthase kinase-3 alpha (P49840 2-483 limits assumed): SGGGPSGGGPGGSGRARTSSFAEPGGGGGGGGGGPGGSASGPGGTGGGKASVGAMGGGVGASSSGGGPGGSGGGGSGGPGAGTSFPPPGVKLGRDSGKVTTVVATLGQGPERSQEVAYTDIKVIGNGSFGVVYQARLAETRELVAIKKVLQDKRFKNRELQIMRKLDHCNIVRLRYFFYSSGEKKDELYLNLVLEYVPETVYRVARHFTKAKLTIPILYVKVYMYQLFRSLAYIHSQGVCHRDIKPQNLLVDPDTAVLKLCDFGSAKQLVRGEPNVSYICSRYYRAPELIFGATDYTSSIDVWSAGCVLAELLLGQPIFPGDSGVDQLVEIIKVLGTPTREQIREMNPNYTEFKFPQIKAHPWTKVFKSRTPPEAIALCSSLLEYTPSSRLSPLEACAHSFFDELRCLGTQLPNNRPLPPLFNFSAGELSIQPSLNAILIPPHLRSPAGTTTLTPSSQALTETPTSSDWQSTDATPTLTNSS
In assay [6] the target is T2, Cyclin-dependent kinase 11A (Homo sapiens) (UniProt Q9UQ88).
T2 sequence (whole entry): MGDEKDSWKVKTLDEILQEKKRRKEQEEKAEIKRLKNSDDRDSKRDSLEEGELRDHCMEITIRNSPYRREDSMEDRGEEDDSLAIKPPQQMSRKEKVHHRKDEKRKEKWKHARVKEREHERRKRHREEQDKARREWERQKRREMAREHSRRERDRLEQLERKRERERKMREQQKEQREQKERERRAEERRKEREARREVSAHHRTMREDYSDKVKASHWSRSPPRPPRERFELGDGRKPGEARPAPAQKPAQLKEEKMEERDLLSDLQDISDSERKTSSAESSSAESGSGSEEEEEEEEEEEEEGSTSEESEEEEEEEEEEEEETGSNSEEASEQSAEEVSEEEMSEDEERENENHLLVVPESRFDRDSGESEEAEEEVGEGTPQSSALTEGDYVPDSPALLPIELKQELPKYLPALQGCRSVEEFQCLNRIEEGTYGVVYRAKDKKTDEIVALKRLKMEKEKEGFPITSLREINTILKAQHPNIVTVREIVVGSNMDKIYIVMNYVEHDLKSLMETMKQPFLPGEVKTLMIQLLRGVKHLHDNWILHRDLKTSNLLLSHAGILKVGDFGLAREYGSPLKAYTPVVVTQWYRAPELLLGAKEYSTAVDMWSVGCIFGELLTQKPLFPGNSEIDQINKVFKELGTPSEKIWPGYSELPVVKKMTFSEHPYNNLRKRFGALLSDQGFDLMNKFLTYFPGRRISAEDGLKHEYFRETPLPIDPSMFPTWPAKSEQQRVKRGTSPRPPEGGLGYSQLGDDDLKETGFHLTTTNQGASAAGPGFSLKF
As to conditions: at 10 µM.

For assay [7], the target named is T3, Dual specificity tyrosine-phosphorylation-regulated kinase 3 (Homo sapiens) (UniProt O43781).
T3 sequence (whole entry): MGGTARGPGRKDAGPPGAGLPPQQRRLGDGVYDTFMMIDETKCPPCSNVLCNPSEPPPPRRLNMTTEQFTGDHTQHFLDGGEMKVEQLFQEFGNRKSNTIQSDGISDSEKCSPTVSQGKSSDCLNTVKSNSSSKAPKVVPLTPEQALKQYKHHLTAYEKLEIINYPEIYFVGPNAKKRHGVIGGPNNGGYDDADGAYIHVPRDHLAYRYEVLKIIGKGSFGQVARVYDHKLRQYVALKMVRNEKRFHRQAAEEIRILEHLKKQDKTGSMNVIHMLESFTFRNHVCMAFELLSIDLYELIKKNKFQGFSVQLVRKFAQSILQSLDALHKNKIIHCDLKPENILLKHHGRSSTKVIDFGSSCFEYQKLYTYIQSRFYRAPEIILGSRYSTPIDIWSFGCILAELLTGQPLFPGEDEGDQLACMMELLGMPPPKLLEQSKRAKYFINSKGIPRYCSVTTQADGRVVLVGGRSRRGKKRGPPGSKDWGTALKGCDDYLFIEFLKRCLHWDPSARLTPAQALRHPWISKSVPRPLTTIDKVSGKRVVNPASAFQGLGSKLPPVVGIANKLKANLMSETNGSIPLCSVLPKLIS
The experiment in a line: Selectivity interaction (ProQinase) EUB0000171b DYRK3.

The structures appear in SMILES notation.

Sequence of Serine/threonine-protein kinase 38 (Homo sapiens) (Q15208 2-465 limits assumed): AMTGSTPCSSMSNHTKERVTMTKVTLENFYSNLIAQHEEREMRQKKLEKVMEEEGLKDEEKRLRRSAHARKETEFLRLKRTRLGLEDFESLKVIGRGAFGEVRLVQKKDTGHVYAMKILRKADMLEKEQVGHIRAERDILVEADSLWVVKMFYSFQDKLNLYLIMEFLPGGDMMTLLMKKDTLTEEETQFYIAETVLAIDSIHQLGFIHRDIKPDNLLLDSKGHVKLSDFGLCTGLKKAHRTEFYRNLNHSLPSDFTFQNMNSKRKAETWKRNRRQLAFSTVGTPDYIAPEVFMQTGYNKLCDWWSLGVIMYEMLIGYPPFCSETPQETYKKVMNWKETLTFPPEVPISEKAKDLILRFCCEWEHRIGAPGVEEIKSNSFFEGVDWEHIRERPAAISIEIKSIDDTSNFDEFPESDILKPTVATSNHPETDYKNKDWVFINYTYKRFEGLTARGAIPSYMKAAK
Sequence of Proto-oncogene tyrosine-protein kinase receptor Ret (Homo sapiens), P07949 [V804M] (P07949 whole entry V804M): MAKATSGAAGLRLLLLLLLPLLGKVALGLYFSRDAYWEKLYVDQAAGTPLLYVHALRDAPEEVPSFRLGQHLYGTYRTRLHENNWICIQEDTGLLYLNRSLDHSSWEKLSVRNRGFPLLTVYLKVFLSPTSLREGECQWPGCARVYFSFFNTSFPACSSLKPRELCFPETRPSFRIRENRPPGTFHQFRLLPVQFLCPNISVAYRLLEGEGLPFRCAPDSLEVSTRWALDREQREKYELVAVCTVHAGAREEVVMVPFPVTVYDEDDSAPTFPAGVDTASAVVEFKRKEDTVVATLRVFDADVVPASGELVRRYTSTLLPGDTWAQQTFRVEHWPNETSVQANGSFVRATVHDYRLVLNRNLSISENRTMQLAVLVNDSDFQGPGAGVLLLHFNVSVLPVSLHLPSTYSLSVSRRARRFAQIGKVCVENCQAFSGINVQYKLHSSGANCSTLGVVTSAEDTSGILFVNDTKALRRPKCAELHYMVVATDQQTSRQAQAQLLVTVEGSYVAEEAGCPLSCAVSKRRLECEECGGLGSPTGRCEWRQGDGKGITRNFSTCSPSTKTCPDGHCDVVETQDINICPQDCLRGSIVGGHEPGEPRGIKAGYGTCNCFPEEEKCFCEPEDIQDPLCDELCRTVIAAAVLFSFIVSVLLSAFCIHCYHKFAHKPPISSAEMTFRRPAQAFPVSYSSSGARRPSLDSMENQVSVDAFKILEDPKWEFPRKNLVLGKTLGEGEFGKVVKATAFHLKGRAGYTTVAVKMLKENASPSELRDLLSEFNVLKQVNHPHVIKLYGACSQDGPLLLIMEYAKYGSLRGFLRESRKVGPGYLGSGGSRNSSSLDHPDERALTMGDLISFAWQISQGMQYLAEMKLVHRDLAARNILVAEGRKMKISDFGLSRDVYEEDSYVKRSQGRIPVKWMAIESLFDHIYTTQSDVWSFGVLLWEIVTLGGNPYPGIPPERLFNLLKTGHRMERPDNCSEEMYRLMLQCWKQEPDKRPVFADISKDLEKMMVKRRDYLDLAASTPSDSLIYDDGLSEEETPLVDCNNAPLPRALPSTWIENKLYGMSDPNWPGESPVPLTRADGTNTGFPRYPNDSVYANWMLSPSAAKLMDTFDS

`C=CC(=O)Nc1ccc(C(=O)Nc2[nH]nc3c2CN(C(=O)N[C@H](CN(C)C)c2ccccc2)C3(C)C)cc1`: in assay [1], the % of engagement was 9.5%.
Regarding `CCc1ccccc1C(=O)Nc1n[nH]c2c(C)c(F)c(C3C(C#N)=C(C)N(C)C(C)=C3C#N)cc12` [BAY-3827], in assay [2], the % of control worked out at 11%.
Take `CCc1cc(Nc2nccc(-c3c(-c4ccc(OC)c(C(=O)Nc5c(F)cccc5F)c4)nc4ccccn34)n2)c(OC)cc1N1CCC(N2CCN(S(C)(=O)=O)CC2)CC1`: the % of inhibition in assay [3] turned out to be 50%.
Turning to `CC[C@@H]1[C@H](F)C(=O)N[C@@H]1COc1nccc2cc(C(N)=O)c(OC)cc12` [ZIMLOVISERTIB], the % of inhibition was -3.8% in assay [4] (at 0.01 µM); 5.4% in assay [4] (at 0.04 µM); 31.8% in assay [4] (at 0.2 µM); 70.6% in assay [4] (at 1 µM); 90% in assay [4] (at 5 µM).
On to `CCN(CC)CCCCNc1ncc2cc(-c3cc(OC)cc(OC)c3)c(NC(=O)NC(C)(C)C)nc2n1`, for which the % of control in assay [5] and in assay [6] was 100% in each case.
Take `C=CC(=O)Nc1cccc(C(=O)Nc2ccc(Nc3cc(-c4[nH]c(SC)nc4C)ccn3)cc2)c1`: the % of control in assay [7] (at 1 µM) amounted to 82%; in assay [7] (at 5 µM) it was 39%.
